Data: patent US6989245B2, “Screening, diagnostic and therapeutic methods relating to RIZ” (The Burnham Institute, priority 2001, dated 2006)

Legend:
[1] = system: prostate of orchiectomized male mice; assay: prostate growth in orchiectomized male mice treated with testosterone; format: in vivo; details: testosterone 3 mg/kg/day S.C. 7 days
Experimental: In order to evaluate the response to testosterone, twelve week old male mice were orchiectomized (ORCed) and testicles were wet weighed (Xu et al., Science 279:1922-1925 (1998)). Nine days following ORC, mice were treated during days 9-15 with S.C. injections of testosterone (3 mg/kg/day, Sigma) or vehicle alone (0.1 ml corn oil). On day 16, mice were sacrificed and the prostate and the pars prostate of the urethra (for technical reasons) were removed and wet weighed.
Eight days after orchiectomization, prostates in both wild-type and mutant animals regressed. Injection of testosterone for 7 days stimulated prostate growth in wild-type animals as well as in RIZ1 null animals. Wild-type and RIZ1 null mutant animals had similar ratios of the weight of prostate and urethra to body weight (1.19±0.03 vs. 1.14±0.03; n=10 and 9 mice for +/+ and −/−, respectively; p=0.23). They also had similar ratios of testis weight to body weight (7.7±0.4 vs. 7.4±0.4; n=14 for both genotypes; p=0.58).

RIZ1 methyltransferase = biological target: T1, RIZ1 methyltransferase (Homo sapiens, UniProt Q13029, DUP703-703); assay: in vitro methylation of histones by immunoprecipitated RIZ1; format: biochemical; details: 0.42 μM of 3H-SAM
T1 construct: Enzyme activity of full-length RIZ1 protein from mammalian cells was next assayed; expressed in transfected cells; host or cells: U2OS human osteosarcoma cells infected with AdRIZ1 adenovirus
T1 sequence (Q13029 with tags, fused parts or gaps DUP703-703): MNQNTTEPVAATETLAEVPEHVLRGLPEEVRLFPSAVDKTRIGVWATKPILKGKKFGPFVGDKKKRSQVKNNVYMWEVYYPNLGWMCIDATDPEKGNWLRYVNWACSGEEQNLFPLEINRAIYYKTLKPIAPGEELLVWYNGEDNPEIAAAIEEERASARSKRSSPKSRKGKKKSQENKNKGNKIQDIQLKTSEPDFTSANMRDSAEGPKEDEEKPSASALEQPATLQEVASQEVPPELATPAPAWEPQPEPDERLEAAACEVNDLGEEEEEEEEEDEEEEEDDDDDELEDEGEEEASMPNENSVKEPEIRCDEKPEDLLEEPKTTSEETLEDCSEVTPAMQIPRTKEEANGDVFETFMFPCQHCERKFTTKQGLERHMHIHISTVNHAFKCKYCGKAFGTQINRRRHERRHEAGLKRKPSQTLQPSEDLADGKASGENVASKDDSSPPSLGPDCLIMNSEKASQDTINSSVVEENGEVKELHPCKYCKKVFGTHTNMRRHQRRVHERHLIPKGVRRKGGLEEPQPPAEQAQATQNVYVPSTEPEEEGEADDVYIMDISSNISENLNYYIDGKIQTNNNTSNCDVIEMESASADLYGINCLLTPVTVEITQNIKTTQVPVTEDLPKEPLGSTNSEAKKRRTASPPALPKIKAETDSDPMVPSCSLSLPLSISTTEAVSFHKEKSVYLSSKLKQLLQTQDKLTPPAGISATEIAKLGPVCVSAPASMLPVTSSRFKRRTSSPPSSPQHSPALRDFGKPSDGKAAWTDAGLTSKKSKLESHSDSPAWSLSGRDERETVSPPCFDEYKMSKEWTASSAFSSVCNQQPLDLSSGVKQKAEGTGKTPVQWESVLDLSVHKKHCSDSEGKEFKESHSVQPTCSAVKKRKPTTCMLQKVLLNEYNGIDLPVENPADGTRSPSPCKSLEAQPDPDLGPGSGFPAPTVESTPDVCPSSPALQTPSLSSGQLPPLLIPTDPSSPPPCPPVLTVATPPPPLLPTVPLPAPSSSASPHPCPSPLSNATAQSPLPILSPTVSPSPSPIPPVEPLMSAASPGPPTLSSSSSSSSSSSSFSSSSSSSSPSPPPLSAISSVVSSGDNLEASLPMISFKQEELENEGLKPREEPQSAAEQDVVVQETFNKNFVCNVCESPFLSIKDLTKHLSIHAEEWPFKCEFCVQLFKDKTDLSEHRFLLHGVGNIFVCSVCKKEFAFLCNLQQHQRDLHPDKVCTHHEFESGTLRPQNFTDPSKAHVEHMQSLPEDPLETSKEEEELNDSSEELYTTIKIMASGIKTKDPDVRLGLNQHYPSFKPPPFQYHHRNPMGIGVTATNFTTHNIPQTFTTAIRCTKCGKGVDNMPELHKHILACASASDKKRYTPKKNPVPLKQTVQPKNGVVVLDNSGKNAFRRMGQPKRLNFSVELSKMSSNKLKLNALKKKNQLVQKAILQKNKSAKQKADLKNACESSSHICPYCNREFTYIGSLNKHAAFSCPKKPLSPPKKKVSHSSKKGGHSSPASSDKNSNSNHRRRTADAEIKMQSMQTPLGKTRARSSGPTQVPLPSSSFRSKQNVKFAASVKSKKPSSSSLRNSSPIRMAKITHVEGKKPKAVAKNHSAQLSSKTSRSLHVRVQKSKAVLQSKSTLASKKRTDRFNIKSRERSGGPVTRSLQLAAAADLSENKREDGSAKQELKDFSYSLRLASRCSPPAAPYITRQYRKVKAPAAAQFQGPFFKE
Experimental: (§1) Methylation reactions (30-40 μl) contained 20 mM Tris-HCl (pH8.0), 0.2 M NaCl, 0.4 mM EDTA, affinity-purified GST-RIZ1 or immunoprecipitation products, free histones (20-40 μg) purified from acid extraction of human cancer cells (A549 or U2OS), and 3 μl (1.65 μCi and 21 pmole)[methyl-^3H]-adenosyl-methionine (Amersham-Pharmacia). Nuclear extracts were prepared according to standard procedures and used for immunoprecipitation. Antisera used for immunoprecipitation were anti-KG7.1S and preimmune serum as described previously (Buyse et al., Proc. Natl. Acad. Sci. U.S.A. 92:4467-4471 (1995)). Similar HMT activity has also been observed with immunoprecipitates using a different serum (data not shown), 1715, which was described previously (Steele-Perkins et al., Genes Dev. 15:2250-2262 (2001)). Various amount of SAH (Sigma) were added in some methylation reactions.
In view of RIZ1's role in tumor suppression, it was determined whether S-adenosylhomocysteine (SAH), an analog inhibitor of SAM-dependent methyltransferases whose abnormal accumulation is linked with carcinogenesis, can inhibit RIZ1 enzyme activities. The effect of SAH on the in vitro methylation of histones by immunoprecipitated RIZ1 was tested. A methylation assay was performed in the presence of 0, 0.5 and 5 μM of SAH and 0.42 μM of 3H-SAM.

[2] = biological target: protein methyltransferase (PMT); details: universal inhibitor of PMT; cited from earlier work
RIZ1 HMT activity [3] = assay: HMT activity of RIZ1 immunoprecipitates from TPA treated U937 cells; format: cell-based, human; details: 24 hr following TPA treatment
Experimental: as §1
To further study the contrasting behavior of H1 and H3 methylation, regulation of RIZ1 HMT activity by cell growth was examined, using 12-O-tetradecanoyl-phorbol-13-acetate (TPA) treatment of U937 myeloid leukemic cells as a model system. U937 cells undergo growth arrest and terminal differentiation into monocytes when exposed to TPA. This cell model was selected for study because it has been shown in these cells that RIZ gene expression is only marginally regulated by TPA. […]

uterus of OVXed mice = assay: uterine growth in response to E2 in ovariectomized (OVXed) mice; format: in vivo; details: E2 0.8 ng/g/day S.C. three days
Experimental: (§2) To investigate E2-mediated increments in proliferation and hyperemia of uteri and changes in the cellular organization of the vaginal epithelium (Xu et al., Science 279:1922-1925 (1998)), 8-week old female RIZ−/− and RIZ+/+mice were ovariectomized (OVXed). At day 15-17 following OVX, mice were treated with S.C. injections of E2 (0.8 ng/g/day; Sigma) or with the vehicle (0.1 ml corn oil) alone for three days. The mice were then sacrificed at day 18 and the uterine wet weight was measured, and vaginal tissue was collected. The tissues were processed as above and vaginal specimens were stained with routine H & E and uterine specimens for PR expression. The thickness of the vaginal epithelium and the cornified layer was photographed and measured as described in FIG. 4 using the Spot 3.2.4. software (Diagnostic Instruments).
The RIZ1 mutant mice are deficient in RIZ1, but not RIZ2, and therefore lack specifically any PR-domain related functions of the gene (Steele-Perkins et al., Genes Dev. 15:2250-2262 (2001)). These animals are viable and fertile and show no gross developmental defects (Steele-Perkins et al., supra (2001)). To determine the physiological role of RIZ1 in steroid hormone action, uterine growth in response to E2 was first examined in ovariectomized (OVXed) mice (Lubahn et al., Proc. Natl. Acad. Sci. USA 90:11162-11166 (1993)). Wild-type or heterozygous RIZ1 mutant mice responded to E2 treatment with a 5.3±0.5 and 5.4±0.4 fold increase in uterine wet weight. […] Uterine response to mechanical traumatization (decidual stimulation) is mainly a progesterone receptor-dependent process (Lydon et al., Genes Dev. 9:2266-2278 (1995)). OVXed mice were treated with a high dose of progesterone and a low dose of E2, followed by mechanical stimulation of the left uterine horn of each animal. The unstimulated […] uterine horn served as a control.

[4] = system: progesterone receptor gene expression in luminal epithelial cells of the uterus; assay: E2 regulation of uterine progesterone receptor expression (immunohistochemistry); format: in vivo, mice
From the text: For RIZ staining, the RIZ rabbit antiserum KG7.1S (Buyse et al., Proc. Natl. Acad. Sci. U.S.A. 92:4467-4471 (1995)) was used at an optimal dilution of 1/200. For ERα staining the polyclonal rabbit anti-ERα antibody (sc-542 Santa Cruz) was used at a dilution of 1/250, and for PR staining the polyclonal rabbit anti-PR antibody (A0098 DAKO) was used at a dilution of 1/100, essentially as described (Tibbetts et al., Biol. Reprod. 59:1143-1152 (1998)). Tissues were fixed in Bouin's solution and processed by routine methods for embeddement in paraffin and sectioning (5 μm). […]
as §2, with “At day 15-17 following OVX, mice were treated with S.C. injections of E2 (0.8 ng/g/day; Sigma) or with the vehicle (0.1 ml corn oil) alone for three days.” left out, “The tissues were processed as above and vaginal specimens were stained with routine H & E and uterine specimens for PR expression.” left out
The epithelial and stromal compartments of the uterus were then analyzed for E2-induced changes in progesterone receptor expression. […]

RIZ1 HMT activity [5] = assay: HMT activity of RIZ1 immunoprecipitated from E2 treated MCF-7 cells; format: cell-based, human; details: RIZ1 immunoprecipitates
Experimental: as §1
To help understand this apparent paradox, the estrogen effects on RIZ1 HMT activity were examined. Nuclear extracts from control and E2 treated MCF-7 cells were immunoprecipitated by RIZ1 serum anti-KG7.1S or preimmune serum. As expected, HMT activity (labeling of H3 and H1) was detected in the immunoprecipitates of RIZ1 serum but not preimmune serum (FIG. 7A, lanes 1 and 3). […] Thus, E2 appears to regulate RIZ1 HMT activity in a selective way, inhibiting specifically methylation of H3 but not H1.

[6] = system: histone H1 phosphorylation in MCF7 cells; assay: H1 phosphorylation in MCF7 cells by western blot; format: cell-based, human; details: E2 48 hr
Experimental: MCF-7 and T47-D breast cancer cells were grown in 15 cm dishes in DMEM with 5% FCS, and 2 mM L-glutamine. Subconfluent cells (4×10^6) were then cultured in DMEM without phenol red, serum or hormones for an additional 3 days, during which media was changed twice daily. Cells were incubated for 24 h with or without hormones (50 nM for E2 and 100 nM for R5020) and infected with an adenovirus vector containing RIZ1 (AdRIZ1; at a concentration of 1×10^10 viral particles/15 cm dish) or the empty vector (AdNull) (He et al., Cancer Res. 58:4238-4244 (1998)). Cells were then grown for an additional 48 h in DMEM without phenol red supplemented with 5% charcoal-treated FCS (Omega Scientific). Cells were harvested and proceeded to immunoprecipitation and immunoblot essentially as described (Buyse et al., Proc. Natl. Acad. Sci. U.S.A. 92:4467-4471 (1995); Liu et al., J. Biol. Chem. 272:2984-2991 (1997)). […]
Because H1 phosphorylation has been linked with transcriptional activation (Bhattacharjee et al., Mol. Cell. Biol. 21:5417-5425 (2001); Dou and Gorovsky, Mol. Cell. 6:225-231 (2000)), it was next asked whether E2 or RIZ1 can enhance H1 phosphorylation. Histones were extracted from MCF7 cells infected with AdRIZ1 or control virus and analyzed by western blot analysis using antibodies that recognize specifically phosphorylated H1.

C[C@]12CC[C@H]3[C@@H](CCC4=CC(=O)CC[C@@]43C)[C@@H]1CC[C@@H]2O [testosterone]
ratio of the weight of prostate and urethra to body weight ([1]; RIZ1 null mutant orchiectomized mice, n=9): 1.14±0.03
ratio of the weight of prostate and urethra to body weight ([1]; wild-type orchiectomized mice, n=10): 1.19±0.03

Nc1ncnc2c1ncn2[C@@H]1O[C@H](CSCC[C@H](N)C(=O)O)[C@@H](O)[C@H]1O [SAH, S-adenosylhomocysteine]
Histone methylation by RIZ1 (RIZ1 methyltransferase; 0.5 μM of SAH): partially inhibited
Histone methylation by RIZ1 (RIZ1 methyltransferase; 5 μM of SAH): completely inhibited
Ki [2]: 5 to 12 µM

CCCCCCCCCCCCCC(=O)O[C@@H]1[C@@H](C)[C@@]2(O)[C@@H](C=C(CO)C[C@]3(O)C(=O)C(C)=C[C@@H]23)[C@@H]2C(C)(C)[C@]12OC(C)=O [TPA, 12-O-tetradecanoyl-phorbol-13-acetate]
H1 methylation by RIZ1 (RIZ1 HMT activity [3]): slightly decreased
H3 methylation by RIZ1 (RIZ1 HMT activity [3]): increased

C[C@]12CC[C@@H]3c4ccc(O)cc4CC[C@H]3[C@@H]1CC[C@@H]2O [E2, estradiol]
fold increase in uterine wet weight (uterus of OVXed mice; heterozygous RIZ1 mutant OVXed mice): 5.4±0.4 fold
fold increase in uterine wet weight (uterus of OVXed mice; homozygous RIZ1 mutant OVXed mice): about 3.7±0.4 fold
fold increase in uterine wet weight (uterus of OVXed mice; wild-type OVXed mice): 5.3±0.5 fold
repression of progesterone receptor gene expression ([4]; in the absence of RIZ1): 2 fold
repression of progesterone receptor gene expression ([4]; in the presence of RIZ1): ~20 fold
H1 methylation by RIZ1 (RIZ1 HMT activity [5]): maintained or slightly enhanced
H3 methylation by RIZ1 (RIZ1 HMT activity [5]): decreased
H1 phosphorylation [6]: increased
